Molecular target: Trx-6×His-BCL6 (human BCL6 BTB domain covering amino-acid sequence 5-129) (Homo sapiens (Human), UniProt P41182)
Test: HTRF in vitro assay (BCL6 / BCOR-AF633 peptide)
Format: binding
Settings: for activity in the HTRF assay: result in words
Experimental: The % inhibition at each concentration was calculated by normalising FRET ratio to the appropriate high (DMSO with all reagents) and low (DMSO without BCL6) controls.

[1] = further generated data, 1 nM Trx-6×His-BCL6, 300 nM BCOR-AF633 peptide, 0.5 nM anti-6×His-Terbium cryptate
[2] = initially generated data, 10 nM Trx-6×His-BCL6, 300 nM BCOR-AF633 peptide, 1 nM anti-6×His-Terbium cryptate

Structure (SMILES)	HTRF pIC50 [1]	activity in the HTRF assay	HTRF pIC50 [2]
Cn1c(=O)n(CCC(C)(C)O)c2cc(Nc3nc(N4CCC(N5CCOCC5)CC4)ncc3Cl)ccc21 [Example 42h, 5-((5-chloro-2-(4-morpholinopiperidin-1-yl)pyrimidin-4-yl)amino)-3-(3-hydroxy-3-methylbutyl)-1-methyl-1,3-dihydro-2H-benzo[d]imidazol-2-one]	6.88	–	–
Cn1c(=O)n(C)c2cc(Nc3ncncc3C#N)ccc21 [4-((1,3-dimethyl-2-oxo-2,3-dihydro-1H-benzo[d]imidazol-5-yl)amino)pyrimidine-5-carbonitrile]	–	did not exhibit the desired activity	–
Cn1c(=O)n(CC2(C#N)CCOCC2)c2cc(Nc3ccnc(Cl)c3C#N)ccc21 [2-chloro-4-((3-((4-cyanotetrahydro-2H-pyran-4-yl)methyl)-1-methyl-2-oxo-2,3-dihydro-1H-benzo[d]imidazol-5-yl)amino)nicotinonitrile]	–	did not exhibit the desired activity	–
COC(=O)[C@H](N)CCn1c(=O)n(C)c2ccc(Nc3ccnc(Cl)c3C#N)cc21 [Example 12, Methyl (2R)-2-amino-4-[6-[(2-chloro-3-cyano-4-pyridyl)amino]-3-methyl-2-oxo-benzimidazol-1-yl]butanoate]	5.68	–	5.79
CN1CC(C)(CCn2c(=O)n(C)c3ccc(Nc4ccnc(Cl)c4C#N)cc32)OC1=O (centres unmarked) [Example 33, 2-chloro-4-((3-(2-(3,5-dimethyl-2-oxooxazolidin-5-yl)ethyl)-1-methyl-2-oxo-2,3-dihydro-1H-benzo[d]imidazol-5-yl)amino)nicotinonitrile]	5.43	–	–
Cn1c(=O)n(CCC(C)(C)O)c2cc(Nc3nc(N4C[C@H]5CCCC[C@H]5C4)ncc3Cl)ccc21 [Example 35o, 5-((5-chloro-2-((3aR,7aS)-octahydro-2H-isoindo1-2-yl)pyrimidin-4-yl)amino)-3-(3-hydroxy-3-methylbutyl)-1-methyl-1,3-dihydro-2H-benzo[d]imidazol-2-one]	6.04	–	–
CCN1CCC[C@H]1Cn1c(=O)n(C)c2ccc(Nc3ccnc(Cl)c3C#N)cc21 [Example 25c, (S)-2-chloro-4-((3-((1-ethylpyrrolidin-2-yl)methyl)-1-methyl-2-oxo-2,3-dihydro-1H-benzo[d]imidazol-5-yl)amino)nicotinonitrile]	5.34	–	–
Cn1c(=O)n(CCC(C)(C)O)c2cc(Nc3nc(N4CCC(C#N)CC4)ncc3Cl)ccc21 [Example 42a, 1-(5-chloro-4-((3-(3-hydroxy-3-methylbutyl)-1-methyl-2-oxo-2,3-dihydro-1H-benzo[d]imidazol-5-yl)amino)pyrimidin-2-yl)piperidine-4-carbonitrile]	6.60	–	–
COC(Cn1c(=O)n(CCC(C)(C)O)c2cc(Nc3nc(N4C[C@@H](C)C(F)(F)[C@@H](C)C4)ncc3Cl)ccc21)OC [Example 41a, 5-((5-chloro-2-((3S,5R)-4,4-difluoro-3,5-dimethylpiperidin-1-yl)pyrimidin-4-yl)amino)-1-(2,2-dimethoxyethyl)-3-(3-hydroxy-3-methylbutyl)-1,3-dihydro-2H-benzo[d]imidazol-2-one]	6.06	–	–
CCNC(=O)c1cc(Nc2ccc3c(c2)n(CCC(C)(C)O)c(=O)n3C)c(Cl)cn1 [Example 14, 5-Chloro-N-ethyl-4-[[3-(3-hydroxy-3-methyl-butyl)-1-methyl-2-oxo-benzimidazol-5-yl]amino]pyridine-2-carboxamide]	6.29	–	6.05
Cn1c(=O)n(CCC(C)(C)O)c2cc(Nc3nc(-n4cccn4)ncc3Cl)ccc21 [Example 15m]	6.08	–	–
Cn1c(=O)n(CCC(C)(C)O)c2cc(Nc3nc(N4CCCC(CO)C4)ncc3Cl)ccc21 (centres unmarked) [Example 42g, 5-((5-chloro-2-(3-(hydroxymethyl)piperidin-1-yl)pyrimidin-4-yl)amino)-3-(3-hydroxy-3-methylbutyl)-1-methyl-1,3-dihydro-2H-benzo[d]imidazol-2-one]	6.92	–	–

Reference: patent US12110286B2, “Benzimidazolone derived inhibitors of BCL6” (Cancer Research Technology Limited, priority 2017, dated 2024)
